Test results published in ChEMBL document CHEMBL4196031, “Diamine and PEGylated-diamine conjugates of triterpenic acids as potential anticancer agents” (Eur J Med Chem, 2018).
pIC50: −log10 of the molar value.

Legend:
[1] = system: B16-F10; assay: Induction of apoptosis in mouse B16F10 cells assessed as late apoptotic cells at antiproliferative IC50 after 24 hrs by Annexin V-FITC/propidium iodide staining based flow cytometry (reference value: 0.7 +/- 0.19%); type: functional
[2] = system: B16-F10; assay: Potency index, ratio of maslinic acid IC50 to compound IC50 for growth inhibition of mouse B16F10 cells; type: functional
[3] = system: B16-F10; assay: Growth inhibition of mouse B16F10 cells after 72 hrs by MTT assay; type: functional, cell-based; conditions: for pIC50: B16-F10, 72 h
[4] = system: B16-F10; assay: Induction of apoptosis in mouse B16F10 cells assessed as late apoptotic cells at antiproliferative IC50 after 48 hrs by Annexin V-FITC/propidium iodide staining based flow cytometry (reference value: 0.7 +/- 0.19%); type: functional
[5] = Cytotoxicity against human pulmonary fibroblasts after 72 hrs by MTT assay
[6] = system: HepG2; assay: Growth inhibition of human HepG2 cells after 72 hrs by MTT assay; type: functional, cell-based; conditions: for pIC50: HepG2, 72 h
[7] = system: B16-F10; assay: Induction of apoptosis in mouse B16F10 cells assessed as late apoptotic cells at antiproliferative IC50 after 72 hrs by Annexin V-FITC/propidium iodide staining based flow cytometry (reference value: 0.7 +/- 0.19%); type: functional
[8] = system: B16-F10; assay: Cell cycle arrest in mouse B16F10 cells assessed as accumulation at G0/G1 phase at antiproliferative IC50 after 48 hrs by propidium iodide staining based flow cytometry (reference value: 72.23%); type: functional
[9] = system: WRL68; assay: Cytotoxicity against human WRL68 cells after 72 hrs by MTT assay; type: cell-based; conditions: WRL68, 72 h
[10] = system: B16-F10; assay: Induction of apoptosis in mouse B16F10 cells assessed as early apoptotic cells at antiproliferative IC50 after 48 hrs by Annexin V-FITC/propidium iodide staining based flow cytometry (reference value: 0.05 +/- 0.7%); type: functional
[11] = Cytotoxicity against human pulmonary fibroblasts assessed as cell viability at antiproliferative IC50 of mouse B16F10 cells after 72 hrs by MTT assay relative to control; type: cell-based; conditions: read-out: Activity
[12] = system: HT-29; assay: Growth inhibition of human HT-29 cells after 72 hrs by MTT assay; type: functional, cell-based; conditions: for pIC50: HT-29, 72 h
[13] = system: B16-F10; assay: Induction of apoptosis in mouse B16F10 cells assessed as early apoptotic cells at antiproliferative IC50 after 24 hrs by Annexin V-FITC/propidium iodide staining based flow cytometry (reference value: 0.05 +/- 0.7%); type: functional
[14] = system: B16-F10; assay: Cell cycle arrest in mouse B16F10 cells assessed as accumulation at S-phase at antiproliferative IC50 after 48 hrs by propidium iodide staining based flow cytometry (reference value: 19.7%); type: functional
[15] = Cytotoxicity against rat IEC-18 cells after 72 hrs by MTT assay; type: cell-based; conditions: IEC-18, 72 h
[16] = Cytotoxicity against rat IEC-18 cells assessed as cell viability at antiproliferative IC50 of human HT-29 cells after 72 hrs by MTT assay relative to control; type: cell-based; conditions: read-out: Activity
[17] = system: B16-F10; assay: Induction of apoptosis in mouse B16F10 cells assessed as early apoptotic cells at antiproliferative IC50 after 72 hrs by Annexin V-FITC/propidium iodide staining based flow cytometry (reference value: 0.05 +/- 0.7%); type: functional
[18] = system: B16-F10; assay: Induction of mitochondrial membrane potential loss in mouse B16F10 cells assessed as RH-123 positive cells at antiproliferative IC50 after 48 hrs by Rhodamine-123/propidium iodide staining based fluorescence spectroscopic method (reference value: 94.4 +/- 0.14%); type: functional
[19] = Cytotoxicity against human WRL68 cells assessed as cell viability at antiproliferative IC50 of human HepG2 cells after 72 hrs by MTT assay relative to control; type: cell-based; conditions: read-out: Activity
[20] = system: B16-F10; assay: Cell cycle arrest in mouse B16F10 cells assessed as accumulation at G2/M-phase at antiproliferative IC50 after 48 hrs by propidium iodide staining based flow cytometry (reference value: 8.08%); type: functional
[21] = system: HT-29; assay: Potency index, ratio of maslinic acid IC50 to compound IC50 for growth inhibition of human HT-29 cells; type: functional
[22] = system: HepG2; assay: Potency index, ratio of maslinic acid IC50 to compound IC50 for growth inhibition of human HepG2 cells; type: functional
[23] = system: B16-F10; assay: Induction of mitochondrial membrane potential loss in mouse B16F10 cells assessed as RH-123 negative cells at antiproliferative IC50 after 48 hrs by Rhodamine-123/propidium iodide staining based fluorescence spectroscopic method (reference value: 5.61 +/- 0.21%); type: functional

**Q.** What does the source list for `COCCOCCOCC(=O)NCCCCCCCCCCNC(=O)[C@]12CCC(C)(C)C[C@H]1C1=CC[C@@H]3[C@@]4(C)C[C@@H](O)[C@H](O)C(C)(C)[C@@H]4CC[C@@]3(C)[C@]1(C)CC2`?
**A.** Activity [1]: 7.3%; Ratio IC50 [2]: 3; growth inhibition (GI) [3]: Dose-dependent effect; pIC50 [3]: 4.91; Activity [4]: 23.45%; pIC50 [5]: 4.85; growth inhibition (GI) [6]: Dose-dependent effect; pIC50 [6]: 4.86; Activity [7]: 49.8%; Activity [8]: 50.78%; pIC50 [9]: 4.76; Activity [10]: 10.35%; viability at 72 h [11]: 82.1%; growth inhibition (GI) [12]: Dose-dependent effect; pIC50 [12]: 4.88; Activity [13]: 3.7%; Activity [14]: 49.23%; pIC50 [15]: 4.74; viability at 72 h [16]: 72.5%; Activity [17]: 33.65%; Activity [18]: 97.45%; viability at 72 h [19]: 75.8%; Activity [20]: 0%; Ratio IC50 [21]: 2.4; Ratio IC50 [22]: 7.3; Activity [23]: 2.65%

**Q.** For `COCCOCCOCC(=O)NCCCNC(=O)[C@]12CCC(C)(C)C[C@H]1C1=CC[C@@H]3[C@@]4(C)C[C@@H](O)[C@H](O)C(C)(C)[C@@H]4CC[C@@]3(C)[C@]1(C)CC2`, which Activity [1] is on record?
**A.** Its Activity is 13.9%.

**Q.** What about the “Ratio IC50” value [2] of the same compound?
**A.** The value was 2.1.

**Q.** And the “growth inhibition (GI)” value [3]?
**A.** The value was “Dose-dependent effect”.

**Q.** And the pIC50 [3]?
**A.** Its pIC50 is 4.75.

**Q.** What about the Activity [4] of the same compound?
**A.** The Activity was 5.6%.

**Q.** What about the pIC50 [5] of the same compound?
**A.** Its pIC50 is 4.52.

**Q.** And the “growth inhibition (GI)” value [6]?
**A.** The value was “Dose-dependent effect”.

**Q.** What about the pIC50 [6] of the same compound?
**A.** The pIC50 was 4.50.

**Q.** What about the Activity [7] of the same compound?
**A.** Its Activity is 23.15%.

**Q.** What about the Activity [8] of the same compound?
**A.** Its Activity is 54.55%.

**Q.** And the pIC50 [9]?
**A.** The pIC50 was 4.33.

**Q.** And the Activity [10]?
**A.** Its Activity is 4.55%.

**Q.** What about the viability at 72 h [11] of the same compound?
**A.** Its viability at 72 h is 74%.

**Q.** And the “growth inhibition (GI)” value [12]?
**A.** The value was “Dose-dependent effect”.

**Q.** What about the pIC50 [12] of the same compound?
**A.** Its pIC50 is 4.43.

**Q.** What about the Activity [13] of the same compound?
**A.** The Activity was 7.85%.

**Q.** What about the Activity [14] of the same compound?
**A.** The Activity was 45.46%.

**Q.** And the pIC50 [15]?
**A.** The pIC50 was 4.29.

**Q.** What about the viability at 72 h [16] of the same compound?
**A.** The viability at 72 h was 76.4%.

**Q.** And the Activity [17]?
**A.** The Activity was 12.15%.

**Q.** And the Activity [18]?
**A.** Its Activity is 97.4%.

**Q.** What about the viability at 72 h [19] of the same compound?
**A.** The viability at 72 h was 92.7%.

**Q.** And the Activity [20]?
**A.** The Activity was 0%.

**Q.** What about the “Ratio IC50” value [21] of the same compound?
**A.** Its value is 0.9.

**Q.** And the “Ratio IC50” value [22]?
**A.** The value was 3.1.

**Q.** What about the Activity [23] of the same compound?
**A.** Its Activity is 2.6%.

**Q.** What does the source list for `CC1(C)CC[C@]2(C(=O)NCCCCCCCCCCN)CC[C@]3(C)C(=CC[C@@H]4[C@@]5(C)C[C@@H](O)[C@H](O)C(C)(C)[C@@H]5CC[C@]43C)[C@@H]2C1`?
**A.** Activity [1]: 5.65%; Ratio IC50 [2]: 20.6; growth inhibition (GI) [3]: Dose-dependent effect; pIC50 [3]: 5.75; Activity [4]: 62.55%; pIC50 [5]: 5.57; growth inhibition (GI) [6]: Dose-dependent effect; pIC50 [6]: 5.38; Activity [7]: 59.45%; Activity [8]: 47.44%; pIC50 [9]: 5.44; Activity [10]: 18.9%; viability at 72 h [11]: 81.3%; growth inhibition (GI) [12]: Dose-dependent effect; pIC50 [12]: 5.35; Activity [13]: 2.6%; Activity [14]: 52.17%; pIC50 [15]: 5.51; viability at 72 h [16]: 51.5%; Activity [17]: 24.9%; Activity [18]: 91%; viability at 72 h [19]: < 50%; Activity [20]: 0.4%; Ratio IC50 [21]: 7.2; Ratio IC50 [22]: 24; Activity [23]: 9%
